According to article PMC9133015 (Nature Communications, 2022):
Several values for one entry are separate records, joined by “and”; a condition that tells them apart may be missing. Equal entries are not always repeated.

How the values were obtained:
Type in all cases: cell-based, human
[1] = tested on: DU145 cells; experiment: Colony formation assay; settings: DU145, 8 μM, replicates
[2] = tested on: 22Rv1 cells; experiment: Colony formation assay; settings: replicates
[3] = tested on: DU145 cells; experiment: Anti-proliferation activity assay (CCK8, 72 h); settings: for Relative proliferation rate (%) mean / Relative proliferation rate (%) / optical density: DU145; for Relative proliferation rate (%) / optical density: replicates
[4] = tested on: PC-3 cells; experiment: Anti-proliferation activity assay (CCK8, 72 h); settings: for Relative proliferation rate (%) mean / Relative proliferation rate (%) / optical density: PC-3; for Relative proliferation rate (%) / optical density: replicates
[5] = tested on: 22Rv1 cells; experiment: Anti-proliferation activity assay (CCK8, 72 h); settings: for Relative proliferation rate (%) mean / Relative proliferation rate (%) / optical density: 22Rv1; for Relative proliferation rate (%) / optical density: replicates

CCN1CCN(C(=O)c2ccc(Nc3ncc(F)c(-c4ccc5nc(N(C)C)sc5c4)n3)nc2)CC1 [YK-2-69]
Colony formation (cell number) [1]: 15 cell number and 12 cell number and 10 cell number | Colony formation (cell number) ([2]; 22Rv1, 0.5 μM): 93 cell number and 88 cell number and 94 cell number | Colony formation (cell number) ([2]; 22Rv1, 1 μM): 40 cell number and 56 cell number and 58 cell number | Colony formation (cell number) ([2]; 22Rv1, 2 μM): 10 cell number and 9 cell number and 13 cell number | Relative proliferation rate (%) mean ([3]; 0.0049 uM): 5.845% | Relative proliferation rate (%) ([3]; 0.0049 uM): 5.804% and 4.647% and 7.084% | optical density ([3]; 0.0049 uM): 0.99 and 0.985 and 1.01 | Relative proliferation rate (%) mean ([3]; 0.078 uM): 13.2988% | Relative proliferation rate (%) ([3]; 0.078 uM): 13.2255% and 9.1% and 17.5713% | optical density ([3]; 0.078 uM): 0.912 and 0.939 and 0.896 | Relative proliferation rate (%) mean ([3]; 0.3125 uM): 23.3091% | Relative proliferation rate (%) ([3]; 0.3125 uM): 23.3111% and 19.8451% and 26.7709% | optical density ([3]; 0.3125 uM): 0.806 and 0.828 and 0.796 | Relative proliferation rate (%) mean ([3]; 1.25 uM): 41.9044% | Relative proliferation rate (%) ([3]; 1.25 uM): 41.8649% and 39.6902% and 44.1582% | optical density ([3]; 1.25 uM): 0.611 and 0.623 and 0.607 | Relative proliferation rate (%) mean ([3]; 5 uM): 55.1717% | Relative proliferation rate (%) ([3]; 5 uM): 55.1855% and 52.3717% and 57.9577% | optical density ([3]; 5 uM): 0.471 and 0.492 and 0.457 | Relative proliferation rate (%) mean ([3]; 20 uM): 69.2763% | Relative proliferation rate (%) ([3]; 20 uM): 69.3625% and 65.0532% and 73.4131% | optical density ([3]; 20 uM): 0.322 and 0.361 and 0.289 | Relative proliferation rate (%) mean ([3]; 80 uM): 80.2708% | Relative proliferation rate (%) ([3]; 80 uM): 80.3045% and 75.4114% and 85.0966% | optical density ([3]; 80 uM): 0.207 and 0.254 and 0.162 | inhibitory activity against proliferation (in words) ([3]; DU145 cells): potent inhibitory activity | IC50 ([3]; Homo sapiens, DU-145, read-out: IC50 against proliferation): 3300 nM | IC50 ([4]; Homo sapiens, PC-3, read-out: IC50 against proliferation): 1070 nM | Relative proliferation rate (%) mean ([4]; 0.0049 uM): 6.648% | Relative proliferation rate (%) ([4]; 0.0049 uM): 6.621% and 4.33% and 8.993% | optical density ([4]; 0.0049 uM): 0.945 and 0.95 and 0.931 | Relative proliferation rate (%) mean ([4]; 0.078 uM): 18.3188% | Relative proliferation rate (%) ([4]; 0.078 uM): 15.5138% and 18.3283% and 21.1144% | optical density ([4]; 0.078 uM): 0.855 and 0.811 and 0.807 | Relative proliferation rate (%) mean ([4]; 0.3125 uM): 33.3383% | Relative proliferation rate (%) ([4]; 0.3125 uM): 28.6561% and 33.3333% and 38.0254% | optical density ([4]; 0.3125 uM): 0.722 and 0.662 and 0.634 | Relative proliferation rate (%) mean ([4]; 1.25 uM): 54.3687% | Relative proliferation rate (%) ([4]; 1.25 uM): 47.8261% and 54.3807% and 60.8993% | optical density ([4]; 1.25 uM): 0.528 and 0.453 and 0.4 | Relative proliferation rate (%) mean ([4]; 5 uM): 70.2315% | Relative proliferation rate (%) ([4]; 5 uM): 66.7984% and 70.1913% and 73.7048% | optical density ([4]; 5 uM): 0.336 and 0.296 and 0.269 | Relative proliferation rate (%) mean ([4]; 20 uM): 81.0679% | Relative proliferation rate (%) ([4]; 20 uM): 78.6561% and 81.0675% and 83.48% | optical density ([4]; 20 uM): 0.216 and 0.188 and 0.169 | Relative proliferation rate (%) mean ([4]; 80 uM): 88.776% | Relative proliferation rate (%) ([4]; 80 uM): 88.7352% and 82.578% and 95.0147% | optical density ([4]; 80 uM): 0.114 and 0.173 and 0.051 | inhibitory activity against proliferation (in words) ([4]; PC-3 cells): potent inhibitory activity | Relative proliferation rate (%) mean ([5]; 0.0049 uM): 8.6252% | Relative proliferation rate (%) ([5]; 0.0049 uM): 6.856% and 10.4024% and 8.617% | optical density ([5]; 0.0049 uM): 0.951 and 0.913 and 0.912 | Relative proliferation rate (%) mean ([5]; 0.078 uM): 28.6346% | Relative proliferation rate (%) ([5]; 0.078 uM): 32.9089% and 24.3376% and 28.6573% | optical density ([5]; 0.078 uM): 0.685 and 0.771 and 0.712 | Relative proliferation rate (%) mean ([5]; 0.3125 uM): 33.639% | Relative proliferation rate (%) ([5]; 0.3125 uM): 36.3369% and 30.9127% and 33.6673% | optical density ([5]; 0.3125 uM): 0.65 and 0.704 and 0.662 | Relative proliferation rate (%) mean ([5]; 1.25 uM): 55.2648% | Relative proliferation rate (%) ([5]; 1.25 uM): 58.57% and 51.9136% and 55.3106% | optical density ([5]; 1.25 uM): 0.423 and 0.49 and 0.446 | Relative proliferation rate (%) mean ([5]; 5 uM): 68.233% | Relative proliferation rate (%) ([5]; 5 uM): 72.38% and 64.0824% and 68.2365% | optical density ([5]; 5 uM): 0.282 and 0.366 and 0.317 | Relative proliferation rate (%) mean ([5]; 20 uM): 73.6982% | Relative proliferation rate (%) ([5]; 20 uM): 76.5916% and 70.7556% and 73.7475% | optical density ([5]; 20 uM): 0.239 and 0.298 and 0.262 | Relative proliferation rate (%) mean ([5]; 80 uM): 89.3325% | Relative proliferation rate (%) ([5]; 80 uM): 93.7316% and 84.8871% and 89.3788% | optical density ([5]; 80 uM): 0.064 and 0.154 and 0.106 | inhibitory activity against proliferation (in words) ([5]; 22Rv1 cells): potent inhibitory activity
